Results from patent US7772263B2, “Compounds for the treatment of inflammatory disorders” (Schering Corporation, priority 2006, dated 2010).

These compounds were tested against T1, purified catalytic domain of recombinant human TACE (rhTACEc) (Homo sapiens, UniProt P78536, N452Q/S266A) (assay: TACE kinetic assay, cleavage of internally quenched fluorescent peptide substrate SPDL-3). Conditions: TACE inhibition, Table 1001; read-out: Ki Rating.
T1 construct: rhTACEc, Residue 215 to 477 with two mutation (S266A and N4520) and a 6×His tail; 6xHis (C); made in house; host or cells: baculovirus/Hi5 insect cells
T1 sequence (P78536 215-477 S266A/N452Q limits assumed): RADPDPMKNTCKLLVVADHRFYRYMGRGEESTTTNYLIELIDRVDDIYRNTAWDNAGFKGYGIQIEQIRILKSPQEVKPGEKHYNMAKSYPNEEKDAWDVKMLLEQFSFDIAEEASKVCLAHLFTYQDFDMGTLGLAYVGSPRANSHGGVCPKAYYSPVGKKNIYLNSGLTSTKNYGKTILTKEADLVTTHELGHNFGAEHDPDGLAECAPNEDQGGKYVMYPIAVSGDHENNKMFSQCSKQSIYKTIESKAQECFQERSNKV
Format: biochemical
With `COc1ccc2c(c1)C(=O)N(C[C@@]1(C#Cc3c(F)ccc(F)c3F)NC(=O)NC1=O)C2` [Compound 466] the Ki was < 5 nM. In the case of `O=C1NC(=O)[C@@](C#Cc2cccnc2)(CN2Cc3ccc(OC(F)F)cc3C2=O)N1` [Compound 943], the Ki is reported as < 5 nM. `COc1ccc2c(c1)C(=O)N(C[C@@]1(C#Cc3csc4ccccc34)NC(=O)NC1=O)C2` [Compound 532] was tested, and the Ki was < 5 nM. For `COc1ccc2c(c1)C(=O)N(C[C@@]1(C#Cc3c(F)cccc3F)NC(=O)NC1=O)C2` [Compound 491], the Ki was < 5 nM. In the case of `COc1ccc2c(c1)C(=O)N(C[C@@]1(C#Cc3ccc(C(F)(F)F)cc3F)NC(=O)NC1=O)C2` [Compound 530], the Ki is reported as < 5 nM. In the case of `COc1ccc2c(c1)C(=O)N(C[C@@]1(C#Cc3cccs3)NC(=O)NC1=O)C2` [Compound 463], the Ki is reported as < 5 nM. With `COc1ccc2c(c1)C(=O)N(C[C@@]1(C#Cc3cccc4cnccc34)NC(=O)NC1=O)C2` [Compound 442] the Ki was < 5 nM. For `COc1ccc2c(c1)C(=O)N(C[C@@]1(C#Cc3cccc(C(C)C)c3)NC(=O)NC1=O)C2` [Compound 931], the Ki was < 5 nM. With `COc1ccc2c(c1)C(=O)N(C[C@@]1(C#Cc3cc(O)c(F)c(F)c3)NC(=O)NC1=O)C2` [Compound 435] the Ki was < 5 nM. For `COc1ccc2c(c1)C(=O)N(C[C@@]1(C#Cc3ccc(F)cc3F)NC(=O)NC1=O)C2` [Compound 490], the Ki was < 5 nM. With `COc1ccc2c(c1)C(=O)N(C[C@@]1(C#Cc3ccncc3N)NC(=O)NC1=O)C2` [Compound 926] the Ki was 5 to 25 nM. With `COc1ccc2c(c1)C(=O)N(C[C@@]1(C#Cc3nccc4cc[nH]c34)NC(=O)NC1=O)C2` [Compound 952] the Ki was < 5 nM. `COc1ccc2c(c1)C(=O)N(C[C@@]1(C#Cc3ccc(C(N)=O)o3)NC(=O)NC1=O)C2` [Compound 916] was tested, and the Ki was < 5 nM. With `COc1ccc2c(c1)C(=O)N(C[C@@]1(C#Cc3ccc(S(=O)(=O)O)cc3)NC(=O)NC1=O)C2` [Compound 973] the Ki was < 5 nM. `COc1ccc2c(c1)C(=O)N(C[C@@]1(C#Cc3ccc(S(C)(=O)=O)s3)NC(=O)NC1=O)C2` [Compound 531] was tested, and the Ki was < 5 nM. With `COc1ccc2c(c1)C(=O)N(C[C@@]1(C#Cc3ccc(-c4ccccn4)s3)NC(=O)NC1=O)C2` [Compound 909] the Ki was < 5 nM. In the case of `COc1ccc2c(c1)C(=O)N(C[C@@]1(C#Cc3ccc[nH]c3=O)NC(=O)NC1=O)C2` [Compound 417C], the Ki is reported as < 5 nM. `O=C1NC(=O)[C@](C#Cc2cc(F)cc(F)c2)(CN2Cc3ccc(OC(F)F)cc3C2=O)N1` [Compound 970] was tested, and the Ki was > 100 nM. In the case of `CNc1nc2cc(C#C[C@]3(CN4Cc5ccc(OC)cc5C4=O)NC(=O)NC3=O)ccc2s1` [Compound 508], the Ki is reported as < 5 nM. For `COc1ccc2c(c1)C(=O)N(C[C@@]1(C#Cc3ccc4nccc(OC)c4c3)NC(=O)NC1=O)C2` [Compound 951], the Ki was < 5 nM. With `COc1ccc2c(c1)C(=O)N(C[C@@]1(C#Cc3ccsc3C(N)=O)NC(=O)NC1=O)C2` [Compound 537] the Ki was < 5 nM. For `COc1ccc2c(c1)C(=O)N(C[C@@]1(C#Cc3ccccc3)NC(=O)NC1=O)C2` [Compound 1002], the Ki was < 5 nM. In the case of `COc1ccc2c(c1)C(=O)N(C[C@@]1(C#Cc3nc4ccccc4s3)NC(=O)NC1=O)C2` [Compound 910], the Ki is reported as < 5 nM. In the case of `COc1ccc2c(c1)C(=O)N(C[C@@]1(C#Cc3ccc4cn(C)nc4c3)NC(=O)NC1=O)C2` [Compound 424], the Ki is reported as < 5 nM. With `COc1ccc2c(c1)C(=O)N(C[C@@]1(C#Cc3ncnc4ccccc34)NC(=O)NC1=O)C2` [Compound 470] the Ki was < 5 nM. For `COc1ccc2c(c1)C(=O)N(C[C@@]1(C#Cc3cncc(N4CCOCC4)c3)NC(=O)NC1=O)C2` [Compound 482], the Ki was < 5 nM. For `COc1ccc2c(c1)C(=O)N(C[C@@]1(C#Cc3ccc(C(F)(F)F)cc3)NC(=O)NC1=O)C2` [Compound 486], the Ki was < 5 nM. For `COc1ccc2c(c1)C(=O)N(C[C@@]1(C#Cc3ccccc3C(F)(F)F)NC(=O)NC1=O)C2` [Compound 514], the Ki was < 5 nM. In the case of `COc1ccc2c(c1)C(=O)N(C[C@@]1(C#Cc3cc(F)cc(F)c3F)NC(=O)NC1=O)C2` [Compound 461], the Ki is reported as < 5 nM. `COc1ccc2c(c1)C(=O)N(C[C@@]1(C#Cc3cccc(Cl)c3C)NC(=O)NC1=O)C2` [Compound 438] was tested, and the Ki was < 5 nM. In the case of `COc1ccc2c(c1)C(=O)N(C[C@@]1(C#Cc3cnc4ncccc4c3)NC(=O)NC1=O)C2` [Compound 932], the Ki is reported as < 5 nM. `COc1ccc2c(c1)C(=O)N(C[C@]1(C#Cc3cnc4ncccc4c3)NC(=O)NC1=O)C2` [Compound 966] showed a Ki of 25 to 100 nM. For `COc1ccc2c(c1)C(=O)N(C[C@@]1(C#Cc3cncc(F)c3)NC(=O)NC1=O)C2` [Compound 430], the Ki was < 5 nM. With `COc1ccc2c(c1)C(=O)N(C[C@@]1(C#Cc3csc(C(F)F)c3)NC(=O)NC1=O)C2` [Compound 528] the Ki was < 5 nM.

Same assay, conditions: TACE; class letters A-D; read-out: Ki Rating
In the case of `COc1ccc2c(c1)C(=O)N(C[C@@]1(C#Cc3ccc4c(c3)COC4=O)NC(=O)NC1=O)C2` [Compound 1010], the Ki is reported as < 5 nM. `COc1ccc2c(c1)CCN(C[C@@]1(C#Cc3ccc(Cl)s3)NC(=O)NC1=O)C2=O` [Compound 1093] was tested, and the Ki was < 5 nM. `COc1ccc2c(c1)C(=O)N(C[C@@]1(C#Cc3ccc(-c4nnn(C)n4)s3)NC(=O)NC1=O)C2` [Compound 1220A] was tested, and the Ki was < 5 nM. For `COc1ccc2c(c1)C(=O)N(C[C@@]1(C#Cc3ccc(F)cc3C)NC(=O)NC1=O)C2` [Compound 1007], the Ki was < 5 nM. With `COc1ccc2c(c1)CCN(C[C@@]1(C#Cc3cccnc3)NC(=O)NC1=O)C2=O` [Compound 1092] the Ki was < 5 nM. For `COc1ccc2c(c1)C(=O)N(C[C@@]1(C#Cc3ccc(N)nc3)NC(=O)NC1=O)C2` [Compound 1152], the Ki was < 5 nM. For `COc1ccc2c(c1)C(=O)N(C[C@@]1(C#Cc3c[nH]c(=O)c(C)c3)NC(=O)NC1=O)C2` [Compound 1524], the Ki was < 5 nM. With `COc1ccc2c(c1)C(=O)N(C[C@@]1(C#Cc3cccc(C)c3)NC(=O)NC1=O)C2` [Compound 1044] the Ki was < 5 nM. For `COc1ccc2c(c1)C(=O)N(C[C@@]1(C#Cc3ccc(C(=O)NCCN(C)C)cc3)NC(=O)NC1=O)C2` [Compound 1142], the Ki was < 5 nM. With `COc1ccc2c(c1)C(=O)N(C[C@@]1(C#Cc3ccc4c(c3)n(C)c(=O)n4C)NC(=O)NC1=O)C2` [Compound 1095] the Ki was < 5 nM. In the case of `COc1ccc2c(c1)C(=O)N(C[C@@]1(C#Cc3cccnc3C3CC3)NC(=O)NC1=O)C2` [Compound 1221], the Ki is reported as < 5 nM. In the case of `CON=C(C)c1ccc(C#C[C@]2(CN3Cc4ccc(OC)cc4C3=O)NC(=O)NC2=O)cc1` [Compound 1565], the Ki is reported as < 5 nM. For `COc1ccc2c(c1)C(=O)N(C[C@@]1(C#Cc3cccc4c3CNC4=O)NC(=O)NC1=O)C2` [Compound 1252], the Ki was < 5 nM. In the case of `COc1ccc2c(c1)C(=O)N(C[C@@]1(C#Cc3ccc4occc4c3)NC(=O)NC1=O)C2` [Compound 1203], the Ki is reported as < 5 nM. For `COc1ccc2c(c1)CCN(C[C@]1(C#Cc3ccc(Cl)s3)NC(=O)NC1=O)C2=O` [Compound 1097], the Ki was > 100 nM. With `COc1ccc2c(c1)C(=O)N(C[C@@]1(C#Cc3cncc(C(C)=NO)c3)NC(=O)NC1=O)C2` [Compound 1552] the Ki was < 5 nM. For `COc1ccc2c(c1)C(=O)N(C[C@@]1(C#Cc3ccc(N4CCOCC4)nc3)NC(=O)NC1=O)C2` [Compound 1153], the Ki was < 5 nM. With `COc1ccc2c(c1)C(=O)N(C[C@@]1(C#Cc3ccc(OCC4CC4)cc3)NC(=O)NC1=O)C2` [Compound 1058] the Ki was < 5 nM. `COc1ccc2c(c1)C(=O)N(C[C@@]1(C#Cc3ccc4nc(C)cn4c3)NC(=O)NC1=O)C2` [Compound 1505] was tested, and the Ki was < 5 nM. In the case of `COc1cccc(C#C[C@]2(CN3Cc4ccc(OC)cc4C3=O)NC(=O)NC2=O)c1` [Compound 1147], the Ki is reported as < 5 nM. With `COc1ccc2c(c1)C(=O)N(C[C@@]1(C#Cc3ccc4oc(C)cc4c3)NC(=O)NC1=O)C2` [Compound 1053] the Ki was < 5 nM. In the case of `COc1ccc2c(c1)C(=O)N(C[C@@]1(C#Cc3ccc(CC(C)=NO)cc3)NC(=O)NC1=O)C2` [Compound 1553], the Ki is reported as < 5 nM. `COc1ccc2c(c1)C(=O)N(C[C@@]1(C#Cc3cccc(C=NO)c3)NC(=O)NC1=O)C2` [Compound 1089] was tested, and the Ki was < 5 nM. In the case of `Cc1cc(COc2ccc3c(c2)C(=O)N(C[C@@]2(C#Cc4cccnc4)NC(=O)NC2=O)C3)c2ccccc2n1` [Compound 1534], the Ki is reported as < 5 nM. In the case of `COc1ccc2c(c1)C(=O)N(C[C@@]1(C#Cc3cc(C)c(=O)n(C)c3)NC(=O)NC1=O)C2` [Compound 1519], the Ki is reported as < 5 nM. `COc1ccc2c(c1)C(=O)N(C[C@@]1(C#Cc3ccc4c(c3)sc(=N)n4C)NC(=O)NC1=O)C2` [Compound 1017] was tested, and the Ki was < 5 nM. For `COc1ccc2c(c1)C(=O)N(C[C@@]1(C#Cc3cnccc3CO)NC(=O)NC1=O)C2` [Compound 1079], the Ki was < 5 nM. In the case of `COc1ccc2c(c1)CCN(C[C@]1(C#Cc3cccnc3)NC(=O)NC1=O)C2=O` [Compound 1096], the Ki is reported as > 100 nM. With `COc1ccc2c(c1)C(=O)N(C[C@@]1(C#Cc3ccc(Cl)c(C(=O)O)c3)NC(=O)NC1=O)C2` [Compound 1140] the Ki was < 5 nM. For `COCc1cccc(C#C[C@]2(CN3Cc4ccc(OC)cc4C3=O)NC(=O)NC2=O)c1` [Compound 1055], the Ki was < 5 nM. With `COc1ccc2c(c1)C(=O)N(C[C@@]1(C#Cc3ccc4c(c3)NC(=O)C4=O)NC(=O)NC1=O)C2` [Compound 1220D] the Ki was < 5 nM. With `COc1ccc2c(c1)C(=O)N(C[C@@]1(C#Cc3cccc4[nH]ncc34)NC(=O)NC1=O)C2` [Compound 1014] the Ki was < 5 nM. For `COc1ccc2c(c1)C(=O)N(C[C@@]1(C#Cc3c(OC)ccc4c(C#N)cccc34)NC(=O)NC1=O)C2` [Compound 1056], the Ki was < 5 nM. With `O=C1NC(=O)[C@@](C#Cc2ccc3cnoc3c2)(CN2Cc3ccc(F)cc3C2=O)N1` [Compound 1211] the Ki was < 5 nM. `COc1ccc2c(c1)C(=O)N(C[C@@]1(C#Cc3cnc(Cl)c(O)c3)NC(=O)NC1=O)C2` [Compound 1571] was tested, and the Ki was < 5 nM. With `COc1ccc2c(c1)C(=O)N(C[C@@]1(C#Cc3ccc(C4(C)NC(=O)N(C)C4=O)cc3)NC(=O)NC1=O)C2` (stereo partly drawn) [Compound 1555] the Ki was < 5 nM. For `CON=Cc1ccc(C#C[C@]2(CN3Cc4ccc(OC)cc4C3=O)NC(=O)NC2=O)cc1` [Compound 1086], the Ki was < 5 nM.

Same assay, conditions: rhTACEc 70 pM, 30 μM SPDL-3, 90 min pre-incubation at 25° C.; read-out: Ki (nM), TACE inhibitory activity
`COc1ccc2c(c1)CCN(C[C@@]1(C#Cc3cccnc3)NC(=O)NC1=O)C2=O` [Compound 1092] showed a Ki of 0.37 nM. `COc1ccc2c(c1)C(=O)N(C[C@@]1(C#Cc3ccc(N)nc3)NC(=O)NC1=O)C2` [Compound 1152] was tested, and the Ki was 0.03 nM. Compound `COc1ccc2c(c1)C(=O)N(C[C@@]1(C#Cc3cccc4cnccc34)NC(=O)NC1=O)C2` [Compound 442] has a Ki of 0.11 nM. With `COc1ccc2c(c1)C(=O)N(C[C@@]1(C#Cc3ccc(F)cc3F)NC(=O)NC1=O)C2` [Compound 490] the Ki was 0.23 nM.
